US20240069010A1, “TISSUE ORGANOID BIOPRINTING AND HIGH-THROUGHPUT SCREENING METHODOLOGY” (priority 2020, published 2024)
Where two headings read alike, the source gives them in different places.

Assays:
[1] = test system: BT-474 organoids; assay: HSLCI mass tracking of bioprinted organoids in drug screening; assay type: cell-based; conditions: for Organoid Behavior (%) Lost Mass: mass loss >10%; for Organoid Behavior (%) Stable: mass change <10%; for Organoid Behavior (%) Gained Mass: mass increase >10%
Source text: Cells were bioprinted using a CELLINK BioX with a Temperature-Controlled Printhead. Gcode files were written to print the desired single-layer geometry. We wrote standardized blocks of Gcode encode the print path for the repeated geometries. MATLAB (MathWorks, Inc.) was used to integrate these standardized blocks into full Gcode files with the defined coordinates for each well. We used 8-well plates when printing the larger constructs as the depth of the well in a standard 24-well plate prohibited the use of 0.5″ length needles. Large rings were necessary to deposit a sufficient number of cells for RNA-Seq and IHC. Four rings with a diameter of 14.5 mm were printed for RNA sequencing (approximately 200,000 cells total), while four sets of concentric 14.5 mm, 12.5 mm, and 10.5 mm diameter rings were used for IHC analysis (approximately 500,000 cells total). We printed mini-squares with side length 3.9 mm for drug screening and HSLCI imaging. The mini-squares were inscribed within the circular well with sides parallel to the sides of the well plate. The open center of the constructs facilitates automatic manipulation with fluid handling equipment while the sides of the square are positioned to maximize the number of organoids imaged by HSLCI. The bioprinting process utilized the same material deposited for manually seeded organoids. A single cell suspension, aggregates or clusters in a 3:4 mixture of MammoCult™ and Matrigel® was prepared on ice. After vortexing briefly to homogenize, the mixture was transferred into a 3 mL syringe by removing the plunger and capping the opposite end. Once the plunger was replaced, the syringe was inverted, and bubbles were forced out of the tip. The material was then transferred to a room temperature 3 mL bioprinter cartridge (CELLINK) by connecting the syringe and cartridge with a double-sided female Luer lock adapter (CELLINK). Any air bubbles in the syringe were removed and the loaded cartridge was incubated in a rotating incubator (Enviro-Genie, Scientific Industries) for 30 minutes at the print temperature.
During the incubation period, the printer was sterilized with the built-in UV irradiation function and the printhead was set to the print temperature. […] The well masks were autoclaved prior to use. The masks were inserted into the well plate and pressed in contact with the glass surface. Rubber bands were used to hold the masks in place and ensure conformal contact was maintained throughout the plasma treatment. The well plates were treated with oxygen plasma in a PE-25 (Plasma Etch) for 30-90 seconds, 15 minutes prior to bioprinting. After plasma treatment, the well plate was placed in the bioprinter and Automatic Bed Levelling (ABL) was performed.
Once the incubation period ended, we attached a 0.5″ 25-gauge needle and loaded the cartridge into the pre-cooled printhead. We primed the needle by extruding a small volume of material at 15 kPa prior to calibrating the printer. Just before printing, we cleared the needle of the gelled material by extruding a small volume using 40 kPa prior to starting the print. To create constructs of the appropriate thicknesses, prints in 8-well plates were extruded at 15 kPa while prints in 96-well plates were extruded at 12-15 kPa. […] After printing, the constructs were incubated at 37° C. for at least 30 minutes to solidify the matrix and 100 μL of MammoCult™ medium was then added.
The HSLCI platform was installed inside a standard cell culture incubator. For all growth kinetics studies and drug screening, organoids were imaged in 96-well glass-bottom plates (Cellvis P96-1.5H-N) using a 40× objective (Nikon, NA 0.75). Organoids were seeded as single-cell suspensions in a 3:4 mixture of MammoCult™ and Matrigel® as described above and were grown at 37° C. and 5% CO2 in MammoCult™ medium supplemented with 1% antibiotic-antimycotic (Gibco 15240-062).

[2] = test system: BT-474 organoids; assay: Endpoint ATP-release assay (CellTiter-Glo) of organoid viability; assay type: cell-based; conditions: BT-474; for viability at 0.1 µM / viability at 1 µM / viability at 10 µM / viability at 50 µM: Homo sapiens
Procedure: All drug treatments of 3D organoids were performed in serum-free conditions in MammoCult™ medium supplemented with 1% antibiotic-antimycotic (Gibco 15240-062). A detailed protocol for the drug screening has been published previously in Phan, N. et al. supra; and Nguyen, H. T. L. & Soragni, supra. Briefly, the culture medium was fully removed three days after seeding and replaced with 100 μL of MammoCult™ medium containing the indicated treatments using an automated pipetting system (EpMotion® 96). After treatment, we transferred the organoids to the HSLCI for imaging. […] The media was aspirated from each well and replaced with 50 μL of 5 mg/mL Dispase (Thermo-Fisher) solution to digest the Matrigel. After a 25-minute incubation at 37° C., the plate was placed on an orbital shaker for 5 minutes at 80 RPM. We then added 30 μL of CellTiter-Glo® reagent (Promega), sealed the plate with film, covered the plate with foil to protect from light, shook the plate for 5 minutes at 80 RPM, and incubated at room temperature for an additional 20 minutes. We used a SpectraMax iD3 plate reader to measure luminescence. The program parameters for luminescence readings were 5 minutes of shaking prior to reading, reading all wavelengths, and integrating signal over 500 ms. Organoid viability within each well was calculated by dividing the luminescent signal from each well by the mean luminescence of the control (1% DMSO) wells. Two-tailed independent t-tests were performed to assess the statistical significance of the differences in organoid mass and cell viability. P-values less than 0.05 were deemed significant.

[3] = listed as printed as 48 hours, relative to 1% DMSO, read-out: Comparisons of cell viability measures by ATP detection assay, Mean mass ± SD
[4] = 72 h of treatment, luminescence relative to 1% DMSO control, read-out: Organoid viability by endpoint ATP assay, Viability ± SD

CS(=O)(=O)CCNCc1ccc(-c2ccc3ncnc(Nc4ccc(OCc5cccc(F)c5)c(Cl)c4)c3c2)o1 [Lapatinib, lapatinib]
Mean mass of BT-474 organoids, Mean mass ± SD ([1]; 0.1 μM, 6 hours of treatment): 1.84 ± 1.21 ng
Mean mass of BT-474 organoids, Mean mass ± SD ([1]; 0.1 μM, 48 hours of treatment): 2.33 ± 1.58 ng
Mean mass of BT-474 organoids, Mean mass ± SD ([1]; 1 μM, 6 hours of treatment): 1.58 ± 0.78 ng
Mean mass of BT-474 organoids, Mean mass ± SD ([1]; 1 μM, 48 hours of treatment): 1.48 ± 0.66 ng
Mean mass of BT-474 organoids, Mean mass ± SD ([1]; 10 μM, 6 hours of treatment): 1.74 ± 0.88 ng
Mean mass of BT-474 organoids, Mean mass ± SD ([1]; 10 μM, 48 hours of treatment): 1.42 ± 0.75 ng
Mean mass of BT-474 organoids, Mean mass ± SD ([1]; 50 μM, 6 hours of treatment): 1.58 ± 0.70 ng
Mean mass of BT-474 organoids, Mean mass ± SD ([1]; 50 μM, 48 hours of treatment): 0.92 ± 0.48 ng
Organoid Behavior (%) Lost Mass ([1]; BT-474 organoids, 0.1 μM, 12 h): 3.1%
Organoid Behavior (%) Stable ([1]; BT-474 organoids, 0.1 μM, 24 h): 45.6%
Organoid Behavior (%) Gained Mass ([1]; BT-474 organoids, 0.1 μM, 24 h): 49.1%
Organoid Behavior (%) Lost Mass ([1]; BT-474 organoids, 0.1 μM, 24 h): 5.3%
Organoid Behavior (%) Stable ([1]; BT-474 organoids, 0.1 μM, 48 h): 25.8%
Organoid Behavior (%) Gained Mass ([1]; BT-474 organoids, 0.1 μM, 48 h): 67.7%
Organoid Behavior (%) Lost Mass ([1]; BT-474 organoids, 0.1 μM, 48 h): 6.5%
Organoid Behavior (%) Lost Mass ([1]; BT-474 organoids, 1 μM, 12 h): 7.4%
Organoid Behavior (%) Stable ([1]; BT-474 organoids, 1 μM, 24 h): 54.2%
Organoid Behavior (%) Gained Mass ([1]; BT-474 organoids, 1 μM, 24 h): 20.3%
Organoid Behavior (%) Lost Mass ([1]; BT-474 organoids, 1 μM, 24 h): 25.4%
Organoid Behavior (%) Stable ([1]; BT-474 organoids, 1 μM, 48 h): 50.0%
Organoid Behavior (%) Gained Mass ([1]; BT-474 organoids, 1 μM, 48 h): 27.5%
Organoid Behavior (%) Lost Mass ([1]; BT-474 organoids, 1 μM, 48 h): 22.5%
Organoid Behavior (%) Gained Mass ([1]; BT-474 organoids, 10 μM, 12 h): 19.6%
Organoid Behavior (%) Lost Mass ([1]; BT-474 organoids, 10 μM, 12 h): 7.1%
Organoid Behavior (%) Stable ([1]; BT-474 organoids, 10 μM, 24 h): 60.3%
Organoid Behavior (%) Gained Mass ([1]; BT-474 organoids, 10 μM, 24 h): 9.5%
Organoid Behavior (%) Lost Mass ([1]; BT-474 organoids, 10 μM, 24 h): 30.2%
Organoid Behavior (%) Stable ([1]; BT-474 organoids, 10 μM, 48 h): 47.2%
Organoid Behavior (%) Gained Mass ([1]; BT-474 organoids, 10 μM, 48 h): 15.1%
Organoid Behavior (%) Lost Mass ([1]; BT-474 organoids, 10 μM, 48 h): 37.7%
Organoid Behavior (%) Lost Mass ([1]; BT-474 organoids, 50 μM, 12 h): 18.5%
Organoid Behavior (%) Stable ([1]; BT-474 organoids, 50 μM, 24 h): 55.6%
Organoid Behavior (%) Gained Mass ([1]; BT-474 organoids, 50 μM, 24 h): 9.7%
Organoid Behavior (%) Lost Mass ([1]; BT-474 organoids, 50 μM, 24 h): 34.7%
Organoid Behavior (%) Gained Mass ([1]; BT-474 organoids, 50 μM, 48 h): 3.8%
Organoid Behavior (%) Lost Mass ([1]; BT-474 organoids, 50 μM, 48 h): 84.6%
lowest concentration at which organoids were affected (average mass) ([1]; BT-474 organoids, 48 h): 1 µM
Organoid viability by endpoint ATP assay, Viability ± SD ([2]; 0.1 μM, 72 h of treatment, luminescence relative to 1% DMSO control): significant reductions in viability
viability at 0.1 µM ([2]; listed as printed as 48 hours, 0.1 μM, relative to 1% DMSO, read-out: Comparisons of cell viability measures by ATP detection assay, Mean mass ± SD): 70 ± 18%
viability at 1 µM [2, 3]: 43 ± 9%
viability at 10 µM [2, 3]: 32 ± 4%
viability at 50 µM [2, 3]: 9 ± 7%
viability at 0.1 µM ([2]; 0.1 μM, 72 h of treatment, luminescence relative to 1% DMSO control, read-out: Organoid viability by endpoint ATP assay, Viability ± SD): 70 ± 18%
viability at 1 µM [2, 4]: 43 ± 9%
viability at 10 µM [2, 4]: 32 ± 4%
viability at 50 µM [2, 4]: 9 ± 7%
